What all share (experiment): relative viability (nuclei count vs DMSO), 5 days (fraction); higher = more cells survive
Compound in the assay “Zosuquidar + Trametinib”: O[C@@H](COc1cccc2ncccc12)CN1CCN([C@@H]2c3ccccc3[C@@H]3[C@H](c4ccccc42)C3(F)F)CC1 [Zosuquidar] + CC(=O)Nc1cccc(-n2c(=O)n(C3CC3)c(=O)c3c(Nc4ccc(I)cc4F)n(C)c(=O)c(C)c32)c1 [Trametinib] (partner 0.02 µM)
In short, it runs like this:
(§1)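 Medians of duplicate plates are given as relative viability. That measure is the nuclei count in treated wells divided by the count in vehicle wells. Counts were taken on 4× images of lung cancer cell lines in 1536-well plates, 5 days after pin-tool dosing the day after seeding with one drug alone or a fixed anchor-drug dose plus five library-drug doses (not always all listed) in √10 steps.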

Compound in the assay “Zosuquidar + Decitabine”: O[C@@H](COc1cccc2ncccc12)CN1CCN([C@@H]2c3ccccc3[C@@H]3[C@H](c4ccccc42)C3(F)F)CC1 [Zosuquidar] + Nc1ncn([C@H]2C[C@H](O)[C@@H](CO)O2)c(=O)n1 [Decitabine] (partner 2 µM)
In short, it runs like this: as §1

Compound in assay [1]: COc1cc2nccc(Oc3ccc(NC(=O)C4(C(=O)Nc5ccc(F)cc5)CC4)cc3)c2cc1OC [Cabozantinib] + Cc1cc(Nc2cc(N3CCN(C)CC3)nc(Sc3ccc(NC(=O)C4CC4)cc3)n2)n[nH]1 [Tozasertib] (partner 0.1 µM)
In short, it runs like this: as §1

Compound in the assay “Kobe2602 + Pictilisib”: C1=CC(=CC=C1NC(=S)NNC2=C(C=C(C=C2[N+](=O)[O-])C(F)(F)F)[N+](=O)[O-])F [Kobe2602] + CS(=O)(=O)N1CCN(Cc2cc3nc(-c4cccc5[nH]ncc45)nc(N4CCOCC4)c3s2)CC1 [Pictilisib] (partner 1 µM)
In short, it runs like this: as §1

With UMC-11, the relative viability in the assay with Zosuquidar + Trametinib (first compound 0.01 µM) stood at 0.668; in the assay with Zosuquidar + Trametinib (first compound 0.03162 µM), 0.758; with Zosuquidar + Trametinib (first compound 0.1 µM), 0.623; with Zosuquidar + Trametinib (first compound 0.3162 µM) it was 0.833; with Zosuquidar + Trametinib (first compound 1 µM) it was 0.606; in the assay with Zosuquidar + Decitabine (first compound 0.01 µM), 0.567. Besides, the relative viability stood at 0.575 with Zosuquidar + Decitabine (first compound 0.03162 µM); 0.538 in the assay with Zosuquidar + Decitabine (first compound 0.1 µM); 0.666 in the assay with Zosuquidar + Decitabine (first compound 0.3162 µM); 0.59 with Zosuquidar + Decitabine (first compound 1 µM); 0.192 in assay [1] (first compound 0.02 µM); 0.2 in assay [1] (first compound 0.06325 µM). The relative viability in assay [1] (first compound 0.2 µM) amounted to 0.203; in assay [1] (first compound 0.6325 µM), 0.204; in assay [1] (first compound 2 µM), 0.202; in the assay with Kobe2602 + Pictilisib (first compound 0.2 µM) it was 0.865; in the assay with Kobe2602 + Pictilisib (first compound 0.6325 µM), 0.863; with Kobe2602 + Pictilisib (first compound 2 µM), 0.847. The relative viability came out at 0.778 with Kobe2602 + Pictilisib (first compound 6.325 µM) and 0.868 with Kobe2602 + Pictilisib (first compound 20 µM).

The values are drawn from the supplement of paper PMC10307832.
